Molecules are shown by their SMILES.

In this assay the test system is vasopressin V2. The assay is described as follows: Vasopressin Antidiuretic (V2) Response in Conscious Rats with Free Access to Water Drinking Before But Not During the Experiment. It counts as in vivo, rat (Sprague-Dawley). Conditions: oral 10 mg/kg, N=2. From the text:
Vasopressin Antidiuretic (V2) Response in Conscious Rats with Free Access to Water Drinking Before But Not During the Experiment Male or female normotensive Sprague-Dawley rats (Charles River Laboratories, Inc., Kingston, N.Y.) of 400-450 g of body weight were supplied with Laboratory Rodent Feed #5001 (PMI Feeds, Inc., Richmond, Ind.) and water ad libitum. On the day of test, rats were placed individually into metabolic cages equipped with stainless steel screens (to separate the feces from the urine) and funnels for collection of urine. Compounds, vehicle, or reference agent was given at various oral doses. During the test, rats were provided with no water or food. After dosing, urine was collected in graduated cylinders for four hours. Urine volume was measured. Urinary osmolality was determined using a Fiske One-Ten Osmometer (Fiske Associates, Norwood, Mass. 02062). An aliquot of each urine collection was analyzed for Na^+,K^+ and Cl^- using ion specific electrodes a in Beckman E3 (Electrolyte 3) analyzer. The vehicle used for testing compounds was 20% dimethylsulfoxide (DMSO) in 2.5% preboiled starch. Compounds were dissolved in DMSO and then diluted in 2.5% corn starch (final concentration of DMSO was 20%). All rats were orally dosed with this mixture at […], by gavage.
Turning to `O=C(Nc1ccc(C(=O)N2Cc3ccccc3Oc3ccccc32)c(Cl)c1)c1ccccc1-c1ccccc1` [Example 47, N-[4-(Dibenz[b,f][1,4]oxazepin-10(11H)-ylcarbonyl)-3-chlorophenyl][1,1'biphenyl]-2-carboxamide], the Osmolality was 394 MOsm/kg and the “Urine Volume” value is 22.0 ml/4 hrs.
For the molecule `O=C(c1ccc(-c2cccs2)cc1)N1Cc2ccccc2Nc2ccccc21` [Example 404, 5,11-Dihydro-10-[4-(2-thienyl)benzoyl]-10H-dibenz[b,e][1,4]diazepine], the Osmolality is listed as 909 MOsm/kg and the “Urine Volume” value was 6 ml/4 hrs.
Consider `O=C(Nc1ccc(C(=O)N2CCc3cn[nH]c3-c3ccccc32)c(Cl)c1)c1ccccc1-c1ccccc1` [Example 397], for which the Osmolality was 288 MOsm/kg and the “Urine Volume” value turned out to be 29.8 ml/4 hrs.
The like results for `O=C(Nc1ccc(C(=O)N2CCc3cn[nH]c3-c3ccccc32)cn1)c1ccccc1-c1ccccc1` [Example 398, N-[5-[(4,5-Dihydropyrazolo[4,3-d][1]benzazepin-6(1H)-yl)carbonyl]-2-pyridinyl][1,1'-biphenyl]-2-carboxamide] were, in that order, 316 MOsm/kg and 20.5 ml/4 hrs.
The like results for `O=C(Nc1ccc(C(=O)N2Cc3cccnc3Oc3ccccc32)cn1)c1ccccc1-c1ccccc1` [Example 66, N-[5-(Pyrido[2,3-b][1,5]benzoxazepin-6(5H)-ylcarbonyl)-2-pyridinyl][1,1'biphenyl]-2-carboxamide] were, in that order, 442 MOsm/kg and 17.0 ml/4 hrs.
The like results for `O=C(Nc1ccc(C(=O)N2Cc3ccccc3Cc3ccccc32)c(Cl)c1)c1ccccc1-c1ccccc1` [Example 302, N-[4-[(6,11-Dihydro-5H-dibenz[b,e]azepin-5-yl)carbonyl]-3-chlorophenyl][1,1'-biphenyl]-2-carboxamide] were, in that order, 356 MOsm/kg and 40 ml/4 hrs.
For the molecule `Cc1ccc(F)cc1C(=O)Nc1ccc(C(=O)N2CCc3cn[nH]c3-c3ccccc32)cn1` [Example 399, N-[5-[(4,5-Dihydropyrazolo[4,3-d][1]benzazepin-6(1H)-yl)carbonyl]-2-pyridinyl]-5-fluoro-2-methylbenzamide], the Osmolality is listed as 404 MOsm/kg and the “Urine Volume” value worked out at 17.0 ml/4 hrs.
For `O=C(Nc1ccc(C(=O)N2Cc3ccccc3Nc3ccccc32)c(Cl)c1)c1ccccc1-c1ccccc1` [Example 218, N-[4-[(5,11-Dihydro-10H-dibenz[b,e][1,4]diazepin-10-yl)carbonyl]-3-chlorophenyl][1,1'-biphenyl]-2-carboxamide] the same measures were 222 MOsm/kg and 34 ml/4 hrs.

The record behind these values is US5849735A, “Tricyclic benzazepine vasopressin antagonists” (American Cyanamid Company, priority 1995, dated 1998).
